The target of this assay is T1, hNav1.2 sodium channel (Homo sapiens, UniProt Q99250).
T1 construct: expressed in transfected cells
Briefly: Nav1.2 use-dependent block, whole-cell voltage clamp, 10 Hz pulse train. The settings on record: Chantest conditions, read-out: NAV1.2 UDB-10 HZ % Inhibition. The format is cell-based. The text has this: Wild-type (WT) cDNA stably transfected in Chinese hamster ovary (CHO) cells is used to record INa. Unless otherwise noted, all reagents are purchased from Sigma-Aldrich (St Louis, Mo., U.S.A.).
Whole-cell voltage-clamp recordings are used to measure the biophysical properties of WT. Briefly, the pipette solution consists of (in mM) 110 CsF, 10 NaF, 20 CsCl, 2 EGTA, 10 HEPES, with a pH of 7.35 and osmolarity of 300 mOsmol/kg. The bath (control) solution contains in (mM): 145 NaCl, 4 KCl, 1.8 CaCl2, 1 MgCl2, 10 dextrose, 10 HEPES, with a pH of 7.35 and osmolarity of 310 mOsmol/kg. Cells are allowed to stabilize for 10 min after establishment of the whole-cell configuration before current is measured. Series resistance is compensated 90% to assure that the command potential is reached within microseconds with a voltage error<2 mV. Leak currents are subtracted by using an online P/4 procedure and all currents are low-pass Bessel filtered at 5 kHz and digitized at 50 kHz.
Tonic block of peak current is measured using a step to −10 mV (20 ms) from a holding potential of −120 mV (0.2 Hz). Use-dependent block of peak current is measured during pulse number 300 of a pulse train (−10 mV, 5 ms, 300 pulses, 10 Hz or 25 Hz) from a holding potential of −120 mV. Currents are then normalized to the peak current recorded in response to the first pulse in each frequency train. For tonic block studies, peak current is evaluated in response to a 20 ms depolarization to −10 mV (0.2 Hz). Two sequential pulse train stimulations are averaged to obtain mean current traces for each recording condition, which are then used for offline subtraction and analysis.
A stock solution of 10 mM compound of Formula I is prepared in 0.1 M HCl or DMSO. A fresh dilution of the compound of Formula I in the bath solution is prepared every experimental day and the pH is readjusted to 7.35 as necessary. The final DMSO concentration was kept at 0.1% in all solutions. Direct application of the perfusion solution to the clamped cell is achieved using the Perfusion Pencil system (Automate, Berkeley, Calif.). Direct cell perfusion is driven by gravity at a flow rate of 350 μL/min using a 250 micron tip. This system sequesters the clamped cell within a perfusion stream and enables complete solution exchange within 1 second. The clamped cell is perfused continuously starting immediately after establishing the whole-cell configuration. Control currents are measured during control solution perfusion.
Solutions are perfused for three minutes prior to current recordings to allow equilibrium (tonic) drug block. Tonic block of peak currents is measured from this steady-state condition. Three sequential current traces are averaged to obtain a mean current for each recording. The mean current traces are utilized for offline analysis.

In general, inhibition refers to the share of the control response that was lost under treatment.

T1 sequence (Q99250 whole entry): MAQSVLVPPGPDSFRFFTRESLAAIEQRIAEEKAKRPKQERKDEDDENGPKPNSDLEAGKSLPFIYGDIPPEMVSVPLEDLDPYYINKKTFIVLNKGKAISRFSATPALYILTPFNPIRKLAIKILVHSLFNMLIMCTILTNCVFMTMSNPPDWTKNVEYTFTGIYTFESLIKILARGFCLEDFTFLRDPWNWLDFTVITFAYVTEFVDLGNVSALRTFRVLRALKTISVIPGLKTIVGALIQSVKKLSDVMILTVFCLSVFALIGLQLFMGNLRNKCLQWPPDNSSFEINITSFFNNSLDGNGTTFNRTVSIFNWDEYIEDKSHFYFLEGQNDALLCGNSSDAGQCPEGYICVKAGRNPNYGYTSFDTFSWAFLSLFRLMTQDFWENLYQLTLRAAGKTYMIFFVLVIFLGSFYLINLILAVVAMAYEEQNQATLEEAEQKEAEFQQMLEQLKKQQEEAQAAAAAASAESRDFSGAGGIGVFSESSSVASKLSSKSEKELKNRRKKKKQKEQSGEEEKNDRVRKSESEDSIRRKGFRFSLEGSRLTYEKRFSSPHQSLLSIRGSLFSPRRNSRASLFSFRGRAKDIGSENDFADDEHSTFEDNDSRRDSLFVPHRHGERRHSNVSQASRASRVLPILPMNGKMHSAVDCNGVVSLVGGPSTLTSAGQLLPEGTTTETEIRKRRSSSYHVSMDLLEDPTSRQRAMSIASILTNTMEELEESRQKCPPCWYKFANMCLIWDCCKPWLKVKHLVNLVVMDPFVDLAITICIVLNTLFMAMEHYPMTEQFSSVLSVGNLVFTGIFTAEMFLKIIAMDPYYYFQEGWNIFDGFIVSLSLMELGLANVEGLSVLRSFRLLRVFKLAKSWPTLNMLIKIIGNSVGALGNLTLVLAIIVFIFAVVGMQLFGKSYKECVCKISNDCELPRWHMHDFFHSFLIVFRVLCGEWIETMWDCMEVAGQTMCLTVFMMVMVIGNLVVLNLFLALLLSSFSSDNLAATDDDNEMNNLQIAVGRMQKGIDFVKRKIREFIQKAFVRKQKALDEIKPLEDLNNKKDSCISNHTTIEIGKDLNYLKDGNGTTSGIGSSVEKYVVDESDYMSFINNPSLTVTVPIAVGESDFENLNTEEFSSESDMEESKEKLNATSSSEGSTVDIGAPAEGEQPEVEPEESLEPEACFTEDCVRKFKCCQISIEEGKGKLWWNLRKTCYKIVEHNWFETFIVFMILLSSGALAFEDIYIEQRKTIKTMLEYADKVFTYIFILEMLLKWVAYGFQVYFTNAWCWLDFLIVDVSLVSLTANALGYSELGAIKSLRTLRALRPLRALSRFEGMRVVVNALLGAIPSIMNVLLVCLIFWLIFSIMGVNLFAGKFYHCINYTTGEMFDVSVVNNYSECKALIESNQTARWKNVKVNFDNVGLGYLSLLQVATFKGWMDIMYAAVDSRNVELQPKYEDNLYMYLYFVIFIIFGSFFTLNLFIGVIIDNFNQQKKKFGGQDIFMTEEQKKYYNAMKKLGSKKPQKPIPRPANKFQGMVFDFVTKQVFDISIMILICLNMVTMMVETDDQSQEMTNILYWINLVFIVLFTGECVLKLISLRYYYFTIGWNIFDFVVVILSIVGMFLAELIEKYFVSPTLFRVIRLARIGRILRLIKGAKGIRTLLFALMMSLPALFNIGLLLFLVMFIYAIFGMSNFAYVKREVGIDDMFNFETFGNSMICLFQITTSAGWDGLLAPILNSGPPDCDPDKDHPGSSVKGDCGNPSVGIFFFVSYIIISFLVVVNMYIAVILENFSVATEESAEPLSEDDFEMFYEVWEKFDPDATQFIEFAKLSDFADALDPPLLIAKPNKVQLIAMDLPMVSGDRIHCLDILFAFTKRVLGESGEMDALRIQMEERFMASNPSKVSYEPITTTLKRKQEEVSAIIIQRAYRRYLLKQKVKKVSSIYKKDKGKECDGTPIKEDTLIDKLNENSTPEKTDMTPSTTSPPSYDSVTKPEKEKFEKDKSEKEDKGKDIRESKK

For `FC(F)(F)c1ccc(-c2ccc3c(c2)C(NCc2ccccc2)=NCCO3)cc1` [II-2, N-benzyl-7-(4-(trifluoromethyl)phenyl)-2,3-dihydrobenzo[f][1,4]oxazepin-5-amine], the inhibition at 1 µM was determined as 24%.

The record behind these values is US9695192B2, “Fused heterocyclic compounds as ion channel modulators” (GILEAD SCIENCES, INC., priority 2011, dated 2017).
